Test results taken from paper PMC11133627, “CATH-2-derived antimicrobial peptide inhibits multidrug-resistant Escherichia coli infection in chickens” (Frontiers in Cellular and Infection Microbiology, 2024).
Ends that are not written are not given here.

Experiments:
E. coli (ATCC 8739) [1] = test: microbe, parasite or virus in culture; assay type: cell-based, Escherichia coli; settings: for MIC against E. coli ATCC 8739: ATCC 8739, 18 h; for MBC against E. coli ATCC 8739: ATCC 8739, 24 h
Procedure: (§1) The minimum inhibitory concentrations (MICs) of the AMPs were determined using the microbroth dilution technique ([van Harten et al., 2021]). One hundred microliters of bacterial suspension at a concentration of 1×10^6 CFU/mL was pipetted into a 96-well plate. Then, 100 μL of AMP or gentamicin at various concentrations was added, while the bacterial suspension without AMPs and blank medium were used as controls.

[2] = system: E. coli clinical isolate E12; test: microbe, parasite or virus in culture; assay type: cell-based, Escherichia coli; settings: for MIC against E. coli E12: clinical isolate E12, 18 h; for MBC against E. coli E12: clinical isolate E12, 24 h
Procedure: as §1

[3] = system: E. coli clinical isolate E14; test: microbe, parasite or virus in culture; assay type: cell-based, Escherichia coli; settings: for MIC against E. coli E14: clinical isolate E14, 18 h; for MBC against E. coli E14: clinical isolate E14, 24 h
Procedure: as §1

[4] = system: E. coli clinical isolate E16; test: microbe, parasite or virus in culture; assay type: cell-based, Escherichia coli; settings: for MIC against E. coli E16: clinical isolate E16, 18 h; for MBC against E. coli E16: clinical isolate E16, 24 h
Procedure: as §1

[5] = system: E. coli clinical isolate E18; test: microbe, parasite or virus in culture; assay type: cell-based, Escherichia coli; settings: for MIC against E. coli E18: clinical isolate E18, 18 h; for MBC against E. coli E18: clinical isolate E18, 24 h
Procedure: as §1

[6] = system: E. coli clinical isolate E9; test: microbe, parasite or virus in culture; assay type: cell-based, Escherichia coli; settings: for MIC against E. coli E9: clinical isolate E9, 18 h; for MBC against E. coli E9: clinical isolate E9, 24 h
Procedure: as §1

E. coli (ATCC 8739) [7] = assay type: cell-based, Escherichia coli; settings: ATCC 8739, 1 h
Procedure: The MICs of the AMPs against E. coli (ATCC 8739) at different temperatures and physiological salt concentrations were evaluated. The thermal stability of the AMPs was assessed by incubating them at a concentration of 500 μg/mL for 1h at 0, 37, and 100°C, using untreated AMPs as a control. The salt ion stability of the AMPs was determined by incubating them at a concentration of 500 μg/mL in solutions of NaCl (150 mM), KCl (4.5 mM), MgCl2 (1 mM), and CaCl2 (2.5 mM) for 1h, using untreated samples as controls. The changes in the MICs of the AMPs were assessed following these experimental procedures.

[8] = system: E. coli clinical isolate E1; test: microbe, parasite or virus in culture; settings: for MIC against E. coli E1: clinical isolate E1, 18 h; for MBC against E. coli E1: clinical isolate E1, 24 h
Procedure: as §1

| Sequence | MIC against E. coli ATCC 8739 (E. coli (ATCC 8739) [1]) | MBC against E. coli ATCC 8739 (E. coli (ATCC 8739) [1]) | MIC against E. coli E12 [2] | MBC against E. coli E12 [2] | MIC against E. coli E14 [3] | MIC against E. coli E16 [4] | MBC against E. coli E16 [4] | MIC against E. coli E18 [5] | MBC against E. coli E18 [5] | MIC against E. coli E9 [6] | MBC against E. coli E9 [6] | MIC against E. coli (ATCC 8739), Salt Stability CaCl2 (2.5 mM) (E. coli (ATCC 8739) [7]) | MIC against E. coli (ATCC 8739), Salt Stability KCl (4.5 mM) (E. coli (ATCC 8739) [7]) | MIC against E. coli (ATCC 8739), Salt Stability MgCl2 (1 mM) (E. coli (ATCC 8739) [7]) | MIC against E. coli (ATCC 8739), Salt Stability NaCl (150 mM) (E. coli (ATCC 8739) [7]) | MIC against E. coli (ATCC 8739), Thermal Stability 0°C (E. coli (ATCC 8739) [7]) | MIC against E. coli (ATCC 8739), Thermal Stability 37°C (E. coli (ATCC 8739) [7]) | MIC against E. coli (ATCC 8739), Thermal Stability 100°C (E. coli (ATCC 8739) [7]) | MBC against E. coli E14 [3] | MIC against E. coli E1 [8] | further results |
| --- | --- | --- | --- | --- | --- | --- | --- | --- | --- | --- | --- | --- | --- | --- | --- | --- | --- | --- | --- | --- | --- |
| RFGRFLRKIRRFRPK [CATH-2 (1-15), reference compound] | 64 µg/mL | 64 µg/mL | 8 µg/mL | 8 µg/mL | 64 µg/mL | 32 µg/mL | 64 µg/mL | 64 µg/mL | 64 µg/mL | 4 µg/mL | 4 µg/mL | 64 µg/mL | 16 µg/mL | 16 µg/mL | 32 µg/mL | 64 µg/mL | 64 µg/mL | 32 µg/mL | – | – | – |
| RFGRFLRKIRFFRLK [C2-5] | 1 µg/mL | 1 µg/mL | 8 µg/mL | 8 µg/mL | 8 µg/mL | 16 µg/mL | 16 µg/mL | 16 µg/mL | 32 µg/mL | 64 µg/mL | 128 µg/mL | 8 µg/mL | 4 µg/mL | 4 µg/mL | 4 µg/mL | 1 µg/mL | 1 µg/mL | 4 µg/mL | 8 µg/mL | 8 µg/mL | MBC against E. coli E1 [8]: 8 µg/mL |
| RFGRHLRKIIRFRIK [C2-3] | 16 µg/mL | 16 µg/mL | 1 µg/mL | 1 µg/mL | 8 µg/mL | 16 µg/mL | 64 µg/mL | 16 µg/mL | 32 µg/mL | 2 µg/mL | 4 µg/mL | 8 µg/mL | 4 µg/mL | 4 µg/mL | 16 µg/mL | 16 µg/mL | 16 µg/mL | 8 µg/mL | 8 µg/mL | 32 µg/mL | MBC against E. coli E1 [8]: 64 µg/mL |
